Data as given in the NIST ThermoML archive (doi:10.1016/j.fluid.2010.10.028).

Test: xn = mol fraction of the nth substance listed
Conditions: Liquid, Vibrating tube method

CC(C)=O [acetone] + CCCCCCC
Conditions	mass density [kg/m3]
397.28 K, 64890 kPa, x1 = 0.7024	708.2
397.28 K, 69880 kPa, x1 = 0.7024	712.51
397.28 K, 74860 kPa, x1 = 0.7024	716.61
397.28 K, 74910 kPa, x1 = 0.492	698.27
397.28 K, 74910 kPa, x1 = 0.801	727.94
397.28 K, 74920 kPa, x1 = 0.611	707.37
397.28 K, 79830 kPa, x1 = 0.7024	720.53
397.28 K, 79900 kPa, x1 = 0.492	702.07
397.28 K, 84840 kPa, x1 = 0.7024	724.33
397.28 K, 84890 kPa, x1 = 0.492	705.69
397.28 K, 89820 kPa, x1 = 0.7024	727.97
397.28 K, 94800 kPa, x1 = 0.7024	731.49
397.28 K, 94850 kPa, x1 = 0.492	712.56
397.28 K, 99780 kPa, x1 = 0.7024	734.88
397.28 K, 99820 kPa, x1 = 0.801	746.56
397.28 K, 104760 kPa, x1 = 0.7024	738.15
397.28 K, 109780 kPa, x1 = 0.801	753.14
397.28 K, 114820 kPa, x1 = 0.7024	744.47
397.28 K, 114850 kPa, x1 = 0.492	725.01
397.28 K, 114850 kPa, x1 = 0.801	756.36
397.28 K, 114870 kPa, x1 = 0.611	734.74
397.28 K, 119800 kPa, x1 = 0.7024	747.44
397.28 K, 119860 kPa, x1 = 0.611	737.69
397.28 K, 124830 kPa, x1 = 0.7024	750.39
397.28 K, 124840 kPa, x1 = 0.492	730.68
397.28 K, 124840 kPa, x1 = 0.801	762.38
397.28 K, 124860 kPa, x1 = 0.611	740.54
397.28 K, 129790 kPa, x1 = 0.7024	753.19
397.28 K, 129840 kPa, x1 = 0.492	733.39
397.28 K, 129840 kPa, x1 = 0.611	743.3
397.29 K, 19850 kPa, x1 = 0.492	638.92
397.29 K, 24860 kPa, x1 = 0.492	646.54
397.29 K, 39850 kPa, x1 = 0.492	665.68
397.29 K, 49840 kPa, x1 = 0.492	676.28
397.29 K, 69930 kPa, x1 = 0.492	694.29
397.29 K, 89860 kPa, x1 = 0.492	709.18
397.29 K, 99830 kPa, x1 = 0.492	715.82
397.29 K, 104800 kPa, x1 = 0.492	718.94
397.29 K, 109740 kPa, x1 = 0.7024	741.31
397.29 K, 109770 kPa, x1 = 0.492	722
397.29 K, 119840 kPa, x1 = 0.492	727.87
407.2 K, 1850 kPa, x1 = 0.4	626.34
407.2 K, 1850 kPa, x1 = 0.8992	626.34
407.2 K, 5000 kPa, x1 = 0.4	635.78
407.2 K, 5000 kPa, x1 = 0.8992	635.78
407.2 K, 10000 kPa, x1 = 0.4	648.49
407.2 K, 10000 kPa, x1 = 0.8992	648.49
407.2 K, 14980 kPa, x1 = 0.4	659.29
407.2 K, 14980 kPa, x1 = 0.8992	659.29
407.2 K, 49890 kPa, x1 = 0.4	710.54
407.2 K, 49890 kPa, x1 = 0.8992	710.54
407.21 K, 1650 kPa, x1 = 0.611	594.88
407.21 K, 1660 kPa, x1 = 0.801	612.07
407.21 K, 4870 kPa, x1 = 0.611	604.63
407.21 K, 4870 kPa, x1 = 0.801	621.91
407.21 K, 9870 kPa, x1 = 0.611	617.29
407.21 K, 14860 kPa, x1 = 0.801	645.72
407.21 K, 14880 kPa, x1 = 0.611	627.98
407.21 K, 19850 kPa, x1 = 0.801	655.22
407.21 K, 19960 kPa, x1 = 0.4	668.77
407.21 K, 19960 kPa, x1 = 0.8992	668.77
407.21 K, 24940 kPa, x1 = 0.4	677.3
407.21 K, 24940 kPa, x1 = 0.8992	677.3
407.21 K, 29940 kPa, x1 = 0.4	685.05
407.21 K, 29940 kPa, x1 = 0.8992	685.05
407.21 K, 34930 kPa, x1 = 0.4	692.12
407.21 K, 34930 kPa, x1 = 0.8992	692.12
407.21 K, 39920 kPa, x1 = 0.4	698.68
407.21 K, 39920 kPa, x1 = 0.8992	698.68
407.21 K, 44900 kPa, x1 = 0.4	704.79
407.21 K, 44900 kPa, x1 = 0.8992	704.79
407.21 K, 54880 kPa, x1 = 0.4	715.92
407.21 K, 54880 kPa, x1 = 0.8992	715.92
407.21 K, 59880 kPa, x1 = 0.4	721.06
407.21 K, 59880 kPa, x1 = 0.8992	721.06
407.21 K, 64860 kPa, x1 = 0.4	725.91
407.21 K, 64860 kPa, x1 = 0.8992	725.91
407.21 K, 69840 kPa, x1 = 0.4	730.52
407.21 K, 69840 kPa, x1 = 0.8992	730.52
407.21 K, 74830 kPa, x1 = 0.4	734.95
407.21 K, 74830 kPa, x1 = 0.8992	734.95
407.21 K, 79810 kPa, x1 = 0.4	739.19
407.21 K, 79810 kPa, x1 = 0.8992	739.19
407.21 K, 84790 kPa, x1 = 0.4	743.24
407.21 K, 84790 kPa, x1 = 0.8992	743.24
407.21 K, 89780 kPa, x1 = 0.4	747.17
407.21 K, 89780 kPa, x1 = 0.8992	747.17
407.22 K, 1650 kPa, x1 = 0.492	588.49
407.22 K, 4850 kPa, x1 = 0.492	597.92
407.22 K, 9860 kPa, x1 = 0.801	634.81
407.22 K, 19860 kPa, x1 = 0.611	637.25
